Test results reported in patent US20230414560A1, “COMPOSITIONS AND METHODS FOR TREATING ECZEMA” (General Nutraceutical Technology LLC, priority 2022, published 2023).
Converted amounts (≈) assume the structure as drawn. Where two headings read alike, the source gives them in different places.

Experiments:
[1] = cited from earlier work
TNF-α [2] = assay: TNF-α production by LPS-stimulated RAW 264.7 cells (ELISA); assay type: cell-based, murine
Procedure: (§1) Human U266 myeloma cells were cultured in complete media containing RPMI-1640 medium with 10% fetal bovine serum (FBS), 0.5% penicillin-streptomycin, 1×10^−5 mol/L of 0-mercaptoethanol, and 1 mmol/L of sodium pyruvate at 37° C. in an incubator with 5% CO2. U266 cells were cultured at initial 2×10^5 cell/mL with SZT-I or active compounds at different concentration. Then the supernatants were collected after 6 days. The level of IgE was. measured by an enzyme-linked immunosorbent assay (ELISA) kit according to the manufacturer's instructions. RAW 264.7 murine macrophages (5×10^5 cell/mL) were cultured in DMEM medium supplemented with 10% FBS, and 0.5% penicillin-streptomycin at 37° C. under 5% CO2. SZT-I or active compounds at different concentrations and LPS (0.5 μg/mL) added to cells. Supernatants were harvested after 24 h and analyzed by ELISA for TNF-α (Mabtech, In vitro studies-Cell viability Inc, Cincinnati, Ohio). Eotaxin inhibitory assays were conducted by using human fetal lung fibroblast (HFL-1) cells. HFL-1 (CCL-153) cells were grown in F-12K medium (ATCC, Rockville, MD) containing 10% fetal bovine serum (Gibco BRL, Grand Island, NY) and 1% penicillin-streptomycin (BD Bio, San Jose, CA). […] Eotaxin levels were determined by using ELISA (R&D Systems) according to the directions of the manufacturer.

Raw 264.7 cells = assay: Raw 264.7 cytotoxicity (MTT assay); assay type: cell-based, murine; conditions: luteolin concentrations tested
Procedure: (§2) Cell viability of U266 was measured by trypan blue exclusion (Yang, Patil, et al., 2013). Cell suspension (10 uL) was mixed with trypan blue dye (10 uL), and viable cells and total cells counted with a hemocytometer. The cell viability was calculated using the equation: cell viability=(total number of viable cells)/(total number of cells). The viability of Raw 264.7 was evaluated using the MTT assay carried out as previously described (Liu, C. et al., 2015, Phytother Res, 29(6), 925-932). Cells were seeded into a 96-well plate at 2×10^4 cells/well, then different concentrations of SZT-I or active compounds were added to the plate. After 24 h, 50 μL MTT (2.0 mg/mL) was added to wells and the plate was incubated for a further 3 h. The supernatant was discarded, and the generated formazan was dissolved in dimethyl sulfoxide (DMSO) (200 μL). The absorbance of wells was detected at 590 nm.

IgE = IgE production by U266 myeloma cells (ELISA); assay type: cell-based, Human
Procedure: as §1

U266 cells = assay: U266 cell viability (trypan blue exclusion); assay type: cell-based, Human; conditions: at the concentrations reducing IgE
Procedure: as §2

TNF-α [3] = assay: RT-PCR mRNA expression of hub target TNF-α after LPS; assay type: cell-based, murine; conditions: after LPS stimulation
Procedure: (§3) Expressions of targets were measured by RT-PCR. After treatment, total RNA was collected from the esophagus. Reverse transcription was conducted to obtain the cDNA. The RT-PCR amplification was performed using SYBRTM Green Master Mix with primers. The primer sequences were listed as follows: m-TNF-α: F-[…] (SEQ ID NO: 3); R-[…] (SEQ ID NO: 4). m-Bcl2: F-[…] (SEQ ID NO: 5); R-[…] (SEQ ID NO: 6). m-IL1B: F-[…] (SEQ ID NO: 7); R-[…] TGTGTG (SEQ ID NO: 8). m-PPARG: F-[…] (SEQ ID NO: 9); R-[…] (SEQ ID NO: 10).

IL1B = assay: RT-PCR mRNA expression of hub target IL1B after LPS; assay type: cell-based, murine; conditions: after LPS stimulation
Procedure: as §3

Bcl2 = assay: RT-PCR mRNA expression of hub target Bcl2 after LPS; assay type: cell-based, murine; conditions: Raw cells
Procedure: as §3

PPARG = assay: RT-PCR mRNA expression of hub target PPARG after LPS; assay type: cell-based, murine; conditions: inhibited by LPS
Procedure: as §3

Compound	O.B. (oral bioavailability) ([1]; TCMSP database, Table 1)	further results
COc1c(O)cc(O)c2c(=O)cc(-c3ccccc3)oc12 [wogonin]	30.68	–
CC1=C(/C=C/C(C)=C/C=C/C(C)=C/C=C/C=C(C)/C=C/C=C(C)/C=C/C2=C(C)CCCC2(C)C)C(C)(C)CCC1 [β-carotene]	37.18	–
COc1c(CC=C(C)C)c(O)cc2oc(=O)c3c4ccc(O)cc4oc3c12 [Glycyrol]	90.78	–
β-amyrin acetate	–	O.B. (oral bioavailability) ([1]; po): 42.06
CCCCC/C=C\C/C=C\CCCCCCCC(=O)OCC [Mandenol]	42	–
Sitosterol	36.91	OB (oral bioavailability) ([1]; TCMSP database): 36.91%
CC1(C)C=Cc2c(ccc(-c3coc4cc(O)ccc4c3=O)c2O)O1 [Glabrone]	52.51	–
CC/C=C/C/C=C/C/C=C/CCCCCCCC(=O)OCC [Ethyl linolenate]	46.1	–
CCCCCCCC/C=C\CCCCCCCC(=O)OCC [Ethyl oleate]	32.4	–
C[C@@]12C[C@@]3(O)O[C@H](O1)[C@@]1(COC(=O)c4ccccc4)[C@@H]3C[C@]12O[C@@H]1O[C@H](CO)[C@H](O)[C@H](O)[C@@H]1O [paeoniflorin_qt]	68.18	–
CC(C)=CCc1c(O)cc2c(c1O)C=C(c1ccc(O)cc1O)CO2 [dehydroglyasperins C]	53.82	–
O=C1C[C@@H](c2ccc(O[C@@H]3O[C@H](CO)[C@@H](O)[C@H](O)[C@H]3O)cc2)Oc2cc(O)ccc21 [liquiritin]	65.69	–
COc1ccc(C(=O)/C=C/c2ccc(O)cc2OC)cc1 [Glypallichalcone]	61.6	–
CC1(C)C=Cc2c(ccc3c2OC[C@@H](c2ccc(O)cc2O)C3)O1 [Glabridin]	53.25	–
β-sitosterol	36.91	OB (oral bioavailability) ([1]; TCMSP database): 36.91%
C=C(C)[C@@H]1CC[C@]2(C(=O)O)CC[C@]3(C)[C@H](CC[C@@H]4[C@@]5(C)CC[C@H](O)C(C)(C)[C@@H]5CC[C@]43C)[C@@H]12 [Betulinic acid]	55.38	–
CC(C)=CCc1c(O)cc(O)c2c(=O)c(-c3ccc(O)cc3)coc12 [Lupiwighteone]	51.64	–
C=C(CC[C@@H](C(=O)O)[C@H]1[C@H](O)C[C@@]2(C)C3=C(CC[C@]12C)[C@@]1(C)CC[C@H](OC(C)=O)C(C)(C)[C@@H]1CC3)C(C)C [Pachymic acid]	33.63	–

Compound	O.B. (oral bioavailability) ([1]; TCMSP database, Table 1)	further results
CC1(C)C=Cc2c(ccc3cc(-c4ccc(O)cc4O)c(=O)oc23)O1 [Kanzonols W]	50.48	–
O=C1C[C@H](c2ccc(O)cc2)Oc2cc(O)ccc21 [(2R)-7-hydroxy-2-(4-hydroxyphenyl) chroman-4-one]	71.12	–
Stigmasterol	43.83	OB (oral bioavailability) ([1]; TCMSP database): 43.83%
O=C1/C(=C2\Nc3ccccc3C2=O)Nc2ccccc21 [Indigo]	38.2	–
COc1cc(O)cc2c1[C@@H]1Oc3c(ccc(O)c3CC=C(C)C)[C@@H]1CO2 [1-Methoxyphaseol-lidin]	69.98	–
CN1CCc2cc3c(cc2[C@H]1[C@H]1OC(=O)c2c1ccc1c2OCO1)OCO3 [bicuculline]	69.67	–
COc1cc2oc3c4c(O)cc(O)cc4oc(=O)c3c2cc1OC [1,3-dihydroxy-8,9-dimethoxy-6-benzofurano[3,2-c]chromenone]	62.9	–
CCCCC/C=C/C/C=C/CCCCCCCCCC(=O)O [11,14-eicosadienoic acid]	39.99	–
O=c1cc(-c2ccc(O)c(O)c2)oc2cc(O)cc(O)c12 [Luteolin]	–	IC50 (TNF-α [2]; Mus musculus, RAW264.7, Raw 264.7 cells, LPS 0.5 μg/mL, 24 h): 5.61 µg/mL (≈ 19.6 µM); production of TNF-α compared with quercetin and kaempferol (TNF-α [2]; Raw 264.7 cells stimulated by LPS, 20 μg/mL): significantly inhibited; cell toxicity on Raw 264.7 (Raw 264.7 cells): no significant cell toxicity; production of IgE (IgE; 10 μg/mL): strongly diminished; IC50 (IgE; Homo sapiens, U-266, 144 h, 6 days): ~4.81 µg/mL (≈ 16.8 µM); cytotoxicity on U266 (U266 cells): without cytotoxicity; mRNA expression of TNF-α (TNF-α [3]): reversed; mRNA expression of IL1B (IL1B): reversed; mRNA expression of Bcl2 (Bcl2): increased the expression of Bcl2 significantly; mRNA expression of PPARG (PPARG): upregulated; OB (oral bioavailability) ([1]; TCMSP database): 36.16%
COc1ccc(-c2coc3cc(O)ccc3c2=O)cc1 [Formononetin]	69.67	–
CC(C)=CC[C@H](O)C1=CC(=O)c2c(O)ccc(O)c2C1=O [Shikonin]	64.79	–
COc1cc(-c2cc(=O)c3c(O)cc(O)cc3o2)ccc1O [Chryseriol]	35.85	–
COc1c(/C=C/C(=O)c2ccc(O)cc2)ccc(O)c1O [Licochalcone B]	76.76	–
CC(C)=CCc1c(O)cc(O)c2c(=O)c(-c3ccc(O)c(O)c3)coc12 [3-(3,4-dihydroxyphenyl)-5,7-dihydroxy-8-(3-methylbut-2-enyl)chromone]	66.37	–
O=c1c(O)c(-c2ccc(O)cc2)oc2cc(O)cc(O)c12 [Kaempferol]	41.88	–
O=c1c(O)c(-c2ccc(O)c(O)c2)oc2cc(O)cc(O)c12 [Quercetin]	46.43	–
CCC(/C=C/[C@H](C)[C@@H]1CC[C@@H]2[C@@H]3CC=C4C[C@@H](O)CC[C@]4(C)[C@@H]3CC[C@@]21C)C(C)C (stereo partly shown) [ZINC03978781]	43.83	–
Oc1cc(O)c2c(c1)O[C@H](c1ccc(O)c(O)c1)[C@@H](O)C2 [Cianidanol]	36.91	–
